Assay results reported in patent US20220220145A1, “CYCLIC PHOSPHATE COMPOUNDS” (priority 2019, published 2022).

Experiment: Tissue distribution following oral administration of reference compounds and the disclosed compounds
Format: in vivo
Details: rats; for levels of nucleoside phosphates in the liver compared to the reference compounds: oral administration, statement in words summarising Table 1
Procedure: The liver specificity of the disclosed compounds is compared relative to a corresponding active compound in liver and other organs that could be targets of toxicity.
Reference compounds and the cyclic phosphate compounds were administered at 5-50 mg/kg to fasted rats by oral gavage. Plasma concentrations of the metabolites, and parent compounds in circulation and in the hepatic portal vein were determined by HPLC-UV, and the liver, small intestine, and other organ concentrations were measured by LC-MS using standard chromatography methods.

| Structure (SMILES) | levels of nucleoside phosphates in the liver compared to the reference compounds | NUCHPV: ratio of new compound vs corresponding reference compound in nucleoside level in hepatic portal vein (HPV) (one hour after oral administration at 5 mg/kg nucleoside equivalent dose, hepatic portal vein) | NMPliver: ratio of new compound vs corresponding reference compound in nucleoside monophosphate level in the liver (one hour after oral administration at 5 mg/kg nucleoside equivalent dose, liver) | NUCblood: ratio of new compound vs corresponding reference compound in nucleoside level in systemic blood (one hour after oral administration at 5 mg/kg nucleoside equivalent dose, systemic blood) |
| --- | --- | --- | --- | --- |
| [2H]C([2H])([2H])c1cn([C@H]2C[C@@H]3OP(=O)(OCc4ccccc4C(=O)OCCC)OC[C@H]3O2)c(=O)[nH]c1=O (stereo partly drawn) [Compound 106, Propyl 2-((((4aR,6R,7aS)-6-(5-(methyl-d3)-2,4-dioxo-3,4-dihydropyrimidin-1(2H)-yl)-2-oxidotetrahydro-4H-furo[3,2-d][1,3,2]dioxaphosphinin-2-yl)oxy)methyl)benzoate] | substantially higher levels |  |  |  |
| CC(C)OC(=O)c1ccccc1COP1(=O)OC[C@H]2O[C@@H](n3ccc(=O)[nH]c3=O)[C@](C)(F)[C@@H]2O1 (stereo partly drawn) [Compound 107, Isopropyl 2-((((4aR,6R,7R,7aR)-6-(2,4-dioxo-3,4-dihydropyrimidin-1(2H)-yl)-7-fluoro-7-methyl-2-oxidotetrahydro-4H-furo[3,2-d][1,3,2]dioxaphosphinin-2-yl)oxy)methyl)benzoate] | substantially higher levels |  |  |  |
| [2H]C([2H])([2H])c1cn([C@H]2C[C@H](O)[C@@H](CO)O2)c(=O)[nH]c1=O [Thymidine-d3] |  | 1.0 | 1.0 | 1.0 |
